Data: PMC7774954, “Interactomic affinity profiling by holdup assay: Acetylation and distal residues impact the PDZome-binding specificity of PTEN phosphatase” (PLoS ONE, 2020)
*1 amine or outer side, *2 acyl side, *3 side chain or, on linkers, in order; H or OH if unused. Where a SMILES comes first, the peptide text is derived from it. The star is where a group is joined. X1 = O=C(CCCC[C@@H]1SC[C@@H]2NC(=O)N[C@@H]21)NCCCOCCOCCOCCCN*; Suc = O=C(CCC(=O)[*:2])[*:1]

What was measured:
MAGI2-4 = MAGI2-4 (Homo sapiens, UniProt Q86UL8); assay: Holdup assay, MAGI2-4; assay type: binding
DLG3-3 = assay: Holdup assay, DLG3-3; assay type: binding, human
LNX2-2 = molecular target: T1, LNX2-2 (Homo sapiens, UniProt Q8N448); assay: Holdup assay, LNX2-2; assay type: binding
T1 sequence (Q8N448 339-422): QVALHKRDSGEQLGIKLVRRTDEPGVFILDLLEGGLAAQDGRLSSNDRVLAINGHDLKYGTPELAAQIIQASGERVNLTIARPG

MAGI2-6 = MAGI2-6 (Homo sapiens, UniProt Q86UL8); assay: Holdup assay, MAGI2-6; assay type: binding
ARHGEF12-1 = molecular target: T2, ARHGEF12-1 (Homo sapiens, UniProt Q9NZN5); assay: Holdup assay, ARHGEF12-1; assay type: binding
T2 sequence (Q9NZN5 72-151): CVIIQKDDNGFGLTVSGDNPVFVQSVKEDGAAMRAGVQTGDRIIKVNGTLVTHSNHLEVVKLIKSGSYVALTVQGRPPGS

MAGI3-3 = assay: Holdup assay, MAGI3-3; assay type: binding, human
MAGI1-1 = assay: Holdup assay, MAGI1-1; assay type: binding, human
SNTB2 PDZ 1 = molecular target: T3, SNTB2 PDZ 1 (Homo sapiens, UniProt Q13425); assay: Holdup assay, SNTB2-1; assay type: binding; settings: for BI: PDZ domain SNTB2-1
T3 construct: made in house; host or cells: E. coli
T3 sequence (Q13425 115-198 limits assumed): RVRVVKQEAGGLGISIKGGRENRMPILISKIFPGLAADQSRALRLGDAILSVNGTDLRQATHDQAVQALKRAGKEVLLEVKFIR
Description: (§1) The holdup assay was performed on a Tecan freedom Evo200 robot with 384-well plates in singlicate for the three 11-mer PTEN variants and the 13-mer PTEN peptide as described in [31, 32]. Briefly, prior to interaction assay, 2.5 μL of streptavidin resin was saturated in each well with 20 μL of biotinylated PBM peptides (42 μM) and then washed twice with an excess of free biotin, while the reference resin was incubated only with biotin. Right before the holdup experiment, the PDZ library was spiked with an internal standard of lysozyme. Then, the biotin- or PBM-saturated resin was incubated, each in a distinct well of a 384-well plate, with complete cell lysates diluted so that the concentration of the tag-PDZ present in the crude extract is adjusted at 4 μM. After a sufficient time to reach complex equilibrium (15 min.), a fast and mild filtration step is performed and the tag-PDZ concentrations were measured by capillary electrophoresis instrument (LabChip GXII, PerkinElmer, Massachusets, USA). Standard markers were used to convert migration time into molecular weight on the LabChip software and inappropriate molecular weight markers were corrected or excluded.
(§2) For filtered data, the BI was extracted with the following equation (Eq 1) that estimates the depleted fraction after superimposition of the sample and reference electropherograms: BI=Iref−Ilig/Iref (1) where Iref and Ilig are the intensities of the tag-PDZ peaks measured, for each PDZ domain/PBM peptide interaction pair, in the biotin reference and the PBM electropherograms, respectively.
(§3) BIs were transformed into dissociation constants (KD) using the following formula: KD=([PDZtot]−BI·[PDZtot])·([PBMtot]−BI·[PDZtot])/BI·[PDZtot] (2) where [PDZtot] and [PBMtot] correspond to the total concentrations of the PDZ domain (usually around 4 μM) and the PBM peptide used during the assay. Since the PBMtot concentration in the resin during the holdup assay parameter may differ from one peptide to another and remains unknown, it is impossible to directly convert BI values into KD constants. We systematically determined the KD constants for a subset of PDZ/PBM pairs by competitive FP. […] For each PBM, the average peptide concentration was calculated after outlier rejection based on the absolute distances from the median as compared to three times the standard deviation (3σ rule), with never more than 2 values rejected.

GRIP1-3 = assay: Holdup assay, GRIP1-3; assay type: binding, human
MAGI1-6 = assay: Holdup assay, MAGI1-6; assay type: binding, human
SNX27 PDZ 1 = molecular target: T4, SNX27 PDZ 1 (Homo sapiens, UniProt Q96L92); assay: Holdup assay, SNX27-1; assay type: binding; settings: for BI: PDZ domain SNX27-1
T4 construct: made in house; host or cells: E. coli
Description: as §1, §2, §3

MAGI3-1 = assay: Holdup assay, MAGI3-1; assay type: binding, human
GRIP1-4 = assay: Holdup assay, GRIP1-4; assay type: binding, human

Chain of MAGI2-6 (Q86UL8 1147-1229): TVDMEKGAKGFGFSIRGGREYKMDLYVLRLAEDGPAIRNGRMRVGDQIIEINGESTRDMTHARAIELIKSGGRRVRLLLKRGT
Chain of MAGI2-4 (Q86UL8 whole entry): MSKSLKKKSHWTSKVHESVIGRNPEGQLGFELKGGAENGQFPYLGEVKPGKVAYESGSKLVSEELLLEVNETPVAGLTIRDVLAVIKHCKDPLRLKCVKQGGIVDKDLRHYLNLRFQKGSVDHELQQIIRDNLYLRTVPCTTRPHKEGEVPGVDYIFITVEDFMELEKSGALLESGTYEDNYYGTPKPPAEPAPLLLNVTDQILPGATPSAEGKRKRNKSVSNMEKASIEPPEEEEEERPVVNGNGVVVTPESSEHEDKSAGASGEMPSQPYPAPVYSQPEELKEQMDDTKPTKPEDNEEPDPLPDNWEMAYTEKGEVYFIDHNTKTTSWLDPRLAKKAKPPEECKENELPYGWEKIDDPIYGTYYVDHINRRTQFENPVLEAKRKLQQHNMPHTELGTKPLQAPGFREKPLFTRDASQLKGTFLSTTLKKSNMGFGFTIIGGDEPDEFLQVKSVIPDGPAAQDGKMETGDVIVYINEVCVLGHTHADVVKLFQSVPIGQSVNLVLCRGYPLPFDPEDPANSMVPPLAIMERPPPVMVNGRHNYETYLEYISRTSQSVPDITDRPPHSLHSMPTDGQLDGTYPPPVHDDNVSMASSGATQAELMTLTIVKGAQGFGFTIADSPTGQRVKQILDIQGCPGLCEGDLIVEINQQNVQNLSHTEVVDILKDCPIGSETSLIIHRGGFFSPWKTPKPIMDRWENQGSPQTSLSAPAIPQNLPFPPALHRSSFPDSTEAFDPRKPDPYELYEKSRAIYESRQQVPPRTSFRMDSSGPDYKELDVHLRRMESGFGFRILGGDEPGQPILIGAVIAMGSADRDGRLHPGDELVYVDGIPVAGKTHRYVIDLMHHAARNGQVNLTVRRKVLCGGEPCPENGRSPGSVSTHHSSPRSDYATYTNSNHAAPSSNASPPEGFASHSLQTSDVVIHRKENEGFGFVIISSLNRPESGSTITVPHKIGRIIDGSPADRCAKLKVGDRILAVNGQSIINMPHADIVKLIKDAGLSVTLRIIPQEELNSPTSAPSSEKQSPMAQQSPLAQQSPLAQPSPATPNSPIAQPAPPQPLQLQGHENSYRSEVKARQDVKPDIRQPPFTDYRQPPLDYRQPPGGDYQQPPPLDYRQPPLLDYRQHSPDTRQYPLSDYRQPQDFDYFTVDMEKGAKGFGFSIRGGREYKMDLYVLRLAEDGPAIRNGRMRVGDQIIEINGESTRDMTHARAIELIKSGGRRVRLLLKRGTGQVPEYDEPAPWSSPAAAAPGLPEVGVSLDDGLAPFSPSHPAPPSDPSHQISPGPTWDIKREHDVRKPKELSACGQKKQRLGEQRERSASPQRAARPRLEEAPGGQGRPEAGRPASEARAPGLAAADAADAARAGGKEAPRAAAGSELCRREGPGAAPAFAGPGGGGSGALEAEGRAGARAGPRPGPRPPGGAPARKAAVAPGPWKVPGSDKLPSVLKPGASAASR

| Compound | BI (MAGI2-4) | LogKD (MAGI2-4) | BI (DLG3-3) | LogKD (DLG3-3) | BI (LNX2-2) | BI (MAGI2-6) | BI (ARHGEF12-1) | Kd (ARHGEF12-1) [µM] | BI (MAGI3-3) | LogKD (MAGI3-3) | BI (MAGI1-1) | LogKD (MAGI1-1) | BI (SNTB2 PDZ 1) | BI (GRIP1-3) | LogKD (GRIP1-3) | BI (MAGI1-6) | LogKD (MAGI1-6) | Kd (SNX27 PDZ 1) [µM] | BI (MAGI3-1) | BI (GRIP1-4) | further results |
| --- | --- | --- | --- | --- | --- | --- | --- | --- | --- | --- | --- | --- | --- | --- | --- | --- | --- | --- | --- | --- | --- |
| CC[C@H](C)[C@H](NC(=O)[C@H](CCC(N)=O)NC(=O)[C@@H](NC(=O)[C@H](Cc1c[nH]cn1)NC(=O)[C@H](CCC(N)=O)NC(=O)[C@H](CC(=O)O)NC(=O)[C@H](CCC(=O)O)NC(=O)[C@H](CC(=O)O)NC(=O)CCC(=O)NCCCOCCOCCOCCCNC(=O)CCCC[C@@H]1SC[C@@H]2NC(=O)N[C@@H]21)[C@@H](C)O)C(=O)N[C@H](C(=O)N[C@@H](CCCCN)C(=O)N[C@H](C(=O)O)C(C)C)[C@@H](C)O [PTEN_11] | 0.06 | 3.519 | -0.011 | 3.519 | -0.039 | 0.176 | 0.392 | 50.3 | -0.099 | 3.519 | 0.001 | 3.519 | 0.023 | -0.015 | 3.519 | -0.04 | 3.519 | 13.8 | -0.011 | 0.028 | LogKD (LNX2-2): 3.519; LogKD (MAGI3-1): 3.519; LogKD (GRIP1-4): 3.519 |
| CC[C@H](C)[C@H](NC(=O)[C@H](CCC(N)=O)NC(=O)[C@@H](NC(=O)[C@H](Cc1c[nH]cn1)NC(=O)[C@H](CCC(N)=O)NC(=O)[C@H](CC(=O)O)NC(=O)[C@H](CCC(=O)O)NC(=O)[C@H](CC(=O)O)NC(=O)[C@H](Cc1ccccc1)NC(=O)[C@@H]1CCCN1C(=O)CCC(=O)NCCCOCCOCCOCCCNC(=O)CCCC[C@@H]1SC[C@@H]2NC(=O)N[C@@H]21)[C@@H](C)O)C(=O)N[C@H](C(=O)N[C@@H](CCCCN)C(=O)N[C@H](C(=O)O)C(C)C)[C@@H](C)O [PTEN_13] ({X1-Suc}-PFDEDQHTQITKV-OH) | -0.036 | 3.826 | -0.054 | – | 0.136 | 0.236 | 0.169 | – | -0.03 | – | -0.027 | – | 0.202 | -0.002 | – | 0.072 | – | 5.58 | -0.006 | -0.039 | Kd (MAGI2-6): 52 µM; Kd (SNTB2 PDZ 1): 64 µM; BI (SNX27 PDZ 1): 0.717 |
| CC[C@H](C)[C@H](NC(=O)[C@H](CCC(N)=O)NC(=O)[C@@H](NC(=O)[C@H](Cc1c[nH]cn1)NC(=O)[C@H](CCC(N)=O)NC(=O)[C@H](CC(=O)O)NC(=O)[C@H](CCC(=O)O)NC(=O)[C@H](CC(=O)O)NC(=O)CCC(=O)NCCCOCCOCCOCCCNC(=O)CCCC[C@@H]1SC[C@@H]2NC(=O)N[C@@H]21)[C@@H](C)O)C(=O)N[C@H](C(=O)N[C@@H](CCCCNC(C)=O)C(=O)N[C@H](C(=O)O)C(C)C)[C@@H](C)O [PTEN_Ac] | 0.1 | 3.605 | -0.04 | 3.605 | 0.68 | 0.469 | 0.535 | 22.5 | -0.079 | 3.605 | 0.034 | 3.605 | – | 0.02 | 3.605 | 0.096 | 3.605 | 4.03 | – | 0.038 | Kd (LNX2-2): 11.9 µM; Kd (MAGI2-6): 29.6 µM; BI (SNX27 PDZ 1): 0.859; LogKD (GRIP1-4): 3.605 |
| CC[C@H](C)[C@H](NC(=O)[C@H](CCC(N)=O)NC(=O)[C@@H](NC(=O)[C@H](Cc1c[nH]cn1)NC(=O)[C@H](CCC(N)=O)NC(=O)[C@H](CC(=O)O)NC(=O)[C@H](CCC(=O)O)NC(=O)[C@H](CC(=O)O)NC(=O)CCC(=O)NCCCOCCOCCOCCCNC(=O)CCCC[C@@H]1SC[C@@H]2NC(=O)N[C@@H]21)[C@@H](C)O)C(=O)N[C@H](C(=O)N[C@@H](CCCNC(=N)N)C(=O)N[C@H](C(=O)O)C(C)C)[C@@H](C)O [PTEN_KR] ({X1-Suc}-DEDQHTQITRV-OH) | 0.116 | – | 0.067 | 3.655 | 0.256 | 0.358 | 0.433 | 30.5 | -0.043 | 3.655 | -0.057 | 3.655 | 0.009 | -0.034 | 3.655 | 0.051 | 3.655 | 8.32 | -0.004 | -0.042 | Kd (LNX2-2): 69.7 µM; Kd (MAGI2-6): 42.3 µM; BI (SNX27 PDZ 1): 0.67; LogKD (MAGI3-1): 3.655; LogKD (GRIP1-4): 3.655 |
